Assay results published in ChEMBL document CHEMBL2010696, “Discovery, optimisation and in vivo evaluation of novel GPR119 agonists” (Bioorg Med Chem Lett, 2011).
Converted amounts (≈) assume the structure as drawn.

Assays:
[1] = in vivo; conditions: rat, plasma, iv, 2 mg/kg
[2] = in vivo; conditions: dog, po, 13 mg/kg
Description: Cmax in dog at 13 mg/kg, po

[3] = in vivo; conditions: rat, po, 5 mg/kg
Description: Half life in rat at 5 mg/kg, po

[4] = in vitro; conditions: dog, plasma
Description: Fraction unbound in dog plasma

[5] = in vivo; conditions: mouse, po, 5 mg/kg
Description: Oral bioavailability in mouse at 5 mg/kg

[6] = in vivo; conditions: mouse, po, 5 mg/kg; remark: listed apart in the source
Description: Cmax in mouse at 5 mg/kg, po

[7] = in vitro; conditions: human, Caco-2
[8] = in vivo; conditions: mouse, iv, 2 mg/kg
Description: Half life in mouse at 2 mg/kg, iv

[9] = in vitro; conditions: mouse, plasma
Description: Fraction unbound in mouse plasma

[10] = in vivo; conditions: rat, iv, 2 mg/kg
Description: Half life in rat at 2 mg/kg, iv

[11] = in vitro; conditions: rat, plasma
Description: Fraction unbound in rat plasma

[12] = in vivo; conditions: rat, po, 5 mg/kg; remark: listed apart in the source
Description: Cmax in rat at 5 mg/kg, po

[13] = physchem; conditions: octanol/water
Description: Lipophilicity, log D of the compound

[14] = in vivo; conditions: mouse, po, 5 mg/kg; remark: listed apart in the source
Description: Half life in mouse at 5 mg/kg, po

[15] = in vivo; conditions: rat, po, 5 mg/kg; remark: listed apart in the source
Description: Oral bioavailability in rat at 5 mg/kg

[16] = physchem
Description: Solubility of the compound

[17] = in vivo; conditions: dog, po, 13 mg/kg; remark: listed apart in the source
Description: Oral bioavailability in dog at 13 mg/kg

[18] = in vivo; conditions: dog, iv, 2 mg/kg
Description: Volume of distribution at steady state in dog at 2 mg/kg, iv and 13 mg/kg, po

[19] = in vivo; conditions: dog, iv, 2 mg/kg; remark: listed apart in the source
[20] = in vitro; conditions: dog, MDCK
Description: Apparent permeability across apical to basolateral side in dog MDCK cells at 10 uM

[21] = in vitro; conditions: human, plasma
Description: Fraction unbound in human plasma

[22] = in vivo; conditions: rat, iv, 2 mg/kg; remark: listed apart in the source
Description: Volume of distribution at steady state in rat at 2 mg/kg, iv and 5 mg/kg, po

[23] = in vivo; conditions: dog, iv, 2 mg/kg; remark: listed apart in the source
Description: Half life in dog at 2 mg/kg, iv

[24] = in vivo; conditions: dog, po, 13 mg/kg; remark: listed apart in the source
Description: Half life in dog at 13 mg/kg, po

[25] = in vivo; conditions: mouse, iv, 2 mg/kg; remark: listed apart in the source
Description: Volume of distribution at steady state in mouse at 2 mg/kg, iv and 5 mg/kg, po

[26] = in vivo; conditions: mouse, plasma, iv, 2 mg/kg

Structure (SMILES): CN(C(=O)Cc1ccc(-n2cnnn2)cc1)C1CCN(Cc2ccc(C(F)(F)F)cc2)CC1
- clearance [1]: 6.8 mL/min/kg
- Cmax [2]: 6400 nM
- half-life [3]: 2.8 h
- fraction unbound [4]: 0.068
- bioavailability [5]: 64%
- Cmax [6]: 2200 nM
- Papp A→B at 10 µM [7]: 57 ×10⁻⁶ cm/s
- half-life [8]: 2.2 h
- fraction unbound [9]: 0.099
- half-life [10]: 2.8 h
- fraction unbound [11]: 0.081
- Cmax [12]: 2400 nM
- logD [13]: 3
- half-life [14]: 2.4 h
- bioavailability [15]: 66%
- solubility [16]: 18 µM (≈ 8.25 µg/mL)
- bioavailability [17]: 35%
- Vd [18]: 2.3 L/kg
- clearance [19]: 1.3 mL/min/kg
- Papp A→B at 10 µM [20]: 17 ×10⁻⁶ cm/s
- fraction unbound [21]: 0.076
- Vd [22]: 1.4 L/kg
- half-life [23]: 20 h
- half-life [24]: 18 h
- Vd [25]: 2 L/kg
- clearance [26]: 12 mL/min/kg

Structure (SMILES): Cc1nc(-c2ccc(CN3CCC(N(C)C(=O)Cc4ccc(-n5cnnn5)cc4)CC3)cc2)no1
- logD [13]: 2.1

Structure (SMILES): CN(C(=O)Cc1ccc(-n2cnnn2)cc1)[C@H]1CCN(Cc2ccc(C(F)(F)F)cc2)C[C@H]1F
- logD [13]: 3.3

Structure (SMILES): CN(C(=O)Cc1ccc(-n2cnnn2)cc1)[C@@H]1CCN(Cc2ccc(C(F)(F)F)cc2)C[C@@H]1F
- logD [13]: 3.3

Structure (SMILES): CO[C@@H]1CN(Cc2ccc(C(F)(F)F)cc2)CC[C@@H]1N(C)C(=O)Cc1ccc(-n2cnnn2)cc1
- logD [13]: 3.1

Structure (SMILES): CO[C@H]1CN(Cc2ccc(C(F)(F)F)cc2)CC[C@H]1N(C)C(=O)Cc1ccc(-n2cnnn2)cc1
- logD [13]: 3
